Measured values published in patent US7517998B2, “Non nucleoside reverse transcriptase inhibitors” (priority 2004, dated 2009).

What follows are compounds tested against T1, K103NNY181C mutant reverse transcriptase (Human immunodeficiency virus type 1 group M subtype B, UniProt P04585, K690N/Y768C) (assay: Reverse transcriptase enzymatic assay (PicoGreen), K103N/Y181C mutant RT). Conditions: IC50 mut (nM), mutant (K103N/Y181C) reverse transcriptase, enzymatic assay of Example 24.
T1 construct: mutations that occur in the reverse transcriptase segment of the pol gene
Type: biochemical, HIV-1
How it was run: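 PicoGreen fluorescence (ex 485, em 520 nm) quantified product after EDTA stop. Reaction ran 50 min at 37 °C in pH 7.8 Tris/HCl buffer, 1% DMSO, with poly rC/dG15 template-primer (45/4.5 nM), 3.6 μM dGTP, 2.5 nM enzyme; inhibitor 10 μM–0.508 nM final after 15 min room-temperature pre-incubation.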

Point of comparison: `CCOC(=O)c1ccc(NC(=O)Nc2ccc(NC(=O)CSc3nnnn3-c3ccc(C(C)(C)C)cc3Cl)c(Cl)c2)cc1` [Compound 7006], IC50 74 nM. Against it:
- CC(C)(C)c1ccc(-n2nnnc2SCC(=O)Nc2ccc(NC(=O)Cc3ccc([N+](=O)[O-])cc3)cc2Cl)c(Cl)c1 [Compound 7025] — 2.1-fold higher, 154 nM
- CC(C)(C)c1ccc(-n2nnnc2SCC(=O)Nc2ccc(NS(=O)(=O)Cc3ccccc3)cc2Cl)c(Cl)c1 [Compound 7004] — 3.7-fold higher, 272 nM
- CC(C)(C)c1ccc(-n2nnnc2SCC(=O)Nc2ccc(NC(=O)Cc3ccccc3)cc2Cl)c(Cl)c1 [Compound 7001] — 1.6-fold higher, 116 nM
- CC(C)(C)c1ccc(-n2nnnc2SCC(=O)Nc2ccc(NC(=O)NCc3ccccc3)cc2Cl)c(Cl)c1 [Compound 7008] — 5.8-fold higher, 428 nM
- CC(C)(C)c1ccc(-n2nnnc2SCC(=O)Nc2ccc(NC(=O)Cc3cccc4occc34)cc2Cl)c(Cl)c1 [Compound 7034] — 2.7-fold higher, 201 nM

Same assay, conditions: IC50 mut, K103N/Y181C mutant reverse transcriptase, enzymatic assay of Example 24

Point of comparison: `CC(C)(C#Cc1ccc(NC(=O)CSc2nnnn2-c2cc(Cl)ccc2Cl)c(Cl)c1)C(=O)O` [Compound 4162], IC50 99 nM. Against it:
- CC(C)(C#Cc1ccc(NC(=O)CSc2nnnn2-c2ccc(C(C)(C)C)cc2Cl)c(Cl)c1)OCC(=O)Nc1ccc(C(=O)O)cc1 [Compound 4045] — 3.1-fold lower, 32 nM
- CC(C)(C#Cc1ccc(NC(=O)CSc2nnnn2-c2ccc(C(C)(C)C)cc2Cl)c(Cl)c1)OCC(=O)NCCO [Compound 4048] — 3.8-fold lower, 26 nM
- Cc1cc(Cl)c(-n2nnnc2SCC(=O)Nc2ccc(C#CC(C)(C)C(=O)O)cc2Cl)cc1C(F)(F)F [Compound 4063] — 1.9-fold lower, 51.5 nM
- CN1CCC[C@H]1C(=O)NC(C)(C)C#Cc1ccc(NC(=O)CSc2nnnn2-c2ccc(C3CC3)cc2Cl)c(Cl)c1 [Compound 4110] — 8.6-fold lower, 11.5 nM
- CC(C)(C)c1ccc(-n2nnnc2SCC(=O)Nc2ccc(C#CCCCOC(N)=O)cc2Cl)c(Cl)c1 [Compound 4061] — 6.2-fold lower, 16 nM
- CC(C(=O)O)C(=O)NC(C)(C)C#Cc1ccc(NC(=O)CSc2nnnn2-c2ccc(C3CC3)cc2Cl)c(Cl)c1 (stereo not shown) [Compound 4234] — 6.4-fold lower, 15.5 nM
- CC(C)(C#Cc1ccc(NC(=O)CSc2nnnn2-c2ccc(C(C)(C)C)cc2Cl)c(Cl)c1)OCC(=O)Nc1cnccn1 [Compound 4040] — 1.7-fold lower, 58 nM
- CC(C)(C#Cc1ccc(NC(=O)CSc2nnnn2-c2cc(C(F)(F)F)ccc2Cl)c(Cl)c1)C(=O)O [Compound 4196] — 2-fold higher, 198 nM
- CC(C)(C#Cc1ccc(NC(=O)CSc2nnnn2-c2ccc(C3CC3)cc2Cl)c(Cl)c1)NCc1nccs1 [Compound 4129] — 6.4-fold lower, 15.5 nM
- CC(C)(C#Cc1ccc(NC(=O)CSc2nnnn2-c2ccc(C(C)(C)C)cc2Cl)c(Cl)c1)OCC(=O)Nc1ccc(O)cc1 [Compound 4024] — 2.8-fold lower, 35 nM
- CCN(CC)CC#Cc1ccc(NC(=O)CSc2nnnn2-c2ccc(C(C)(C)C)cc2Cl)c(Cl)c1 [Compound 4008] — within 1.5-fold, 94 nM
- CC(C)(C#Cc1ccc(NC(=O)CSc2nnnn2-c2cc(C(F)(F)F)ccc2Cl)c(Cl)c1)NC(=O)C1CC1 [Compound 4140] — 1.9-fold lower, 51 nM
- Cc1cc(C(F)(F)F)cc(-n2nnnc2SCC(=O)Nc2ccc(C#CC(C)(C)C(=O)O)cc2Cl)c1Cl [Compound 4058] — 1.6-fold lower, 63 nM
- CC(C)c1ccc(-n2nnnc2SCC(=O)Nc2ccc(C#CC(C)(C)C(=O)O)cc2Cl)c(Br)c1 [Compound 4099] — 2.3-fold lower, 42.5 nM
- CN(C)CCCC(=O)NC(C)(C)C#Cc1ccc(NC(=O)CSc2nnnn2-c2ccc(C3CC3)cc2Cl)c(Cl)c1 [Compound 4108] — 3.7-fold lower, 27 nM
- CC(C)(C#Cc1ccc(NC(=O)CSc2nnnn2-c2ccc(C3CC3)cc2Cl)c(Cl)c1)C(=O)NC(C)(C)C(=O)O [Compound 4144] — within 1.5-fold, 81 nM
- CCC(N)(C#Cc1ccc(NC(=O)CSc2nnnn2-c2ccc(C3CC3)cc2Cl)c(Cl)c1)CC [Compound 4068] — 2.6-fold lower, 38.5 nM
- CC(C)(O)C#Cc1ccc(NC(=O)CSc2nnnn2-c2ccc(C(C)(C)C)cc2Cl)c(Cl)c1 [Compound 4005] — 5-fold lower, 20 nM
- Cc1cc(-n2nnnc2SCC(=O)Nc2ccc(C#CC(C)(C)O)cc2Cl)c(Cl)c(C(F)(F)F)c1 [Compound 4031] — 2.7-fold higher, 264 nM
- CC(C)(C#Cc1ccc(NC(=O)CSc2nnnn2-c2cc(C(F)(F)F)ccc2Cl)c(Cl)c1)OCCOc1ccncc1 [Compound 4168] — within 1.5-fold, 108 nM
- CC(C)(C#Cc1ccc(NC(=O)CSc2nnnn2-c2ccc(C3(C)CC3)cc2Cl)c(Cl)c1)C(=O)O [Compound 4173] — 1.9-fold lower, 51 nM
- CC(C)(O)C#Cc1ccc(NC(=O)CSc2nnnn2-c2c(F)ccc(C(F)(F)F)c2Cl)c(Cl)c1 [Compound 4022] — 1.9-fold higher, 185 nM
- CC(C)(C#Cc1ccc(NC(=O)CSc2nnnn2-c2cc(C(F)(F)F)cc(C3CC3)c2Cl)c(Cl)c1F)NC(=O)CN1CCNCC1 [Compound 4236] — 2.5-fold higher, 250 nM
- CC(C)(C#Cc1ccc(NC(=O)CSc2nnnn2-c2ccc(C3CC3)cc2Cl)c(Cl)c1)NC(=O)Cn1cncn1 [Compound 4109] — 9.2-fold lower, 10.8 nM
- Cc1ccc(-n2nnnc2SCC(=O)Nc2ccc(C#CC(C)(C)O)cc2Cl)c(Cl)c1C(F)(F)F [Compound 4059] — 6.6-fold higher, 656 nM
- CC(=O)NNC(=O)COC(C)(C)C#Cc1ccc(NC(=O)CSc2nnnn2-c2ccc(C(C)(C)C)cc2Cl)c(Cl)c1 [Compound 4043] — 2.8-fold lower, 35 nM
- CC(C)(C#Cc1ccc(NC(=O)CSc2nnnn2-c2ccc(C3CC3)cc2Cl)c(Cl)c1)OCCOc1ccncc1 [Compound 4167] — 2.5-fold lower, 39.5 nM
- CC(C)(O)C#Cc1ccc(NC(=O)CSc2nnnn2-c2cc(F)cc(C(F)(F)F)c2Cl)c(Cl)c1 [Compound 4029] — 2.1-fold higher, 212 nM
- CC(C)(C#Cc1ccc(NC(=O)CSc2nnnn2-c2ccc(C3CC3)cc2Cl)c(Cl)c1)NC(=O)CN1CCCC1 [Compound 4123] — 2.6-fold lower, 38 nM
- CN1CCN(C(=O)NC(C)(C)C#Cc2ccc(NC(=O)CSc3nnnn3-c3ccc(C4CC4)cc3Cl)c(Cl)c2)CC1 [Compound 4229] — 6.6-fold lower, 15 nM
- CC(C)(N)C#Cc1ccc(NC(=O)CSc2nnnn2-c2cc(C(F)(F)F)ccc2Cl)c(Cl)c1F [Compound 4163] — within 1.5-fold, 83 nM
- CN(C)CCCC(=O)NC(C)(C)C#Cc1ccc(NC(=O)CSc2nnnn2-c2ccc(C3CC3)cc2Cl)c(Cl)c1F [Compound 4156] — 2.7-fold lower, 36.5 nM
- CC(C)(O)C#Cc1ccc(NC(=O)CSc2nnnn2-c2ccc(C3CC3)cc2Cl)c(Br)c1 [Compound 4078] — 7.3-fold lower, 13.5 nM

Same assay, conditions: IC50 mut, mutant reverse transcriptase, enzymatic assay of Example 24

Point of comparison: `O=C(COc1ccc(NC(=O)CSc2nnnn2-c2ccc(C3CC3)cc2Cl)c(Cl)c1)NCCc1cccc[n+]1[O-]` [Compound 5038], IC50 557 nM. Against it:
- CC(C)(COc1ccc(NC(=O)CSc2nnnn2-c2ccc(C3CC3)cc2Cl)c(Cl)c1)C(=O)O [Compound 3046] — 5.3-fold lower, 105 nM
- O=C(CSc1nnnn1-c1ccc(C2CC2)cc1Cl)Nc1ccc(OCC(=O)N2CCC(C(=O)O)CC2)cc1Cl [Compound 5032] — 11-fold lower, 51.5 nM
- Cc1ccc(-n2nncc2SCC(=O)Nc2ccc(-c3ccc(CC(=O)O)cc3)cc2Cl)c(Cl)c1 [Compound 1005] — within 1.5-fold, 730 nM
- Cc1cc(C(F)(F)F)cc(-n2nnnc2SCC(=O)Nc2ccc(-c3ccc(CC(=O)O)cc3)cc2Cl)c1Cl [Compound 2044] — 19-fold lower, 29 nM
- CC(C)(C)c1ccc(-n2nnnc2SCC(=O)Nc2ccc(-c3ccc(S(C)(=O)=O)cc3)cc2Cl)c(Cl)c1 [Compound 2027] — 24-fold lower, 23 nM
- CC(C)(C)c1ccc(-n2nnnc2SCC(=O)Nc2ccc(OCC(=O)Nc3ccccc3C(=O)O)cc2Cl)c(Cl)c1 [Compound 5010] — within 1.5-fold, 402 nM
- Cc1ccc(-n2nccc2SCC(=O)Nc2ccc(-c3ccc(CC(=O)O)cc3)cc2Cl)c(Cl)c1 [Compound 1004] — within 1.5-fold, 420 nM
- CC(C)(C)c1ccc(-n2nnnc2SCC(=O)Nc2ccc(-c3ccc(OCCn4ccnc4)cc3)cc2Cl)c(Cl)c1 [Compound 2036] — 8.3-fold lower, 67 nM
- Cc1cc(NC(=O)COc2ccc(NC(=O)CSc3nnnn3-c3ccc(C(C)(C)C)cc3Cl)c(Cl)c2)no1 [Compound 5001] — 7.8-fold lower, 71 nM
- CC(C)(C)c1ccc(-n2nnnc2SCC(=O)Nc2ccc(OCC(=O)NCC(=O)O)cc2Cl)c(Cl)c1 [Compound 5020] — 3.4-fold lower, 163 nM
- Cc1ccc(-n2nnnc2SCC(=O)Nc2ccc(-c3ccc(CC(N)=O)cc3)cc2[N+](=O)[O-])c(Cl)c1 [Compound 2013] — 28-fold lower, 20 nM
- O=C(O)Cc1ccc(-c2ccc(NC(=O)CSc3nnnn3-c3ccc4ncsc4c3Cl)c(Cl)c2)cc1 [Compound 2035] — 2.1-fold lower, 269 nM
- O=C(O)Cc1ccc(-c2ccc(NC(=O)CSc3nnnn3-c3ccc(C4CC4)cc3Cl)c(Br)c2)cc1 [Compound 2048] — 43-fold lower, 13 nM
- C/C(=C\c1ccc(NC(=O)CSc2nnnn2-c2ccc(C3CC3)cc2Cl)c(Cl)c1)C(=O)O [Compound 3041] — 5.9-fold lower, 94 nM
- CC(C)(C(=O)O)c1ccc(-c2ccc(NC(=O)CSc3nnnn3-c3ccc(C4CC4)cc3Cl)c(Cl)c2)cc1 [Compound 2052] — 29-fold lower, 19 nM
- O=C(O)Cc1ccc(-c2ccc(NC(=O)CSc3nnnn3-c3ccc(C4CC4)cc3Cl)c(Cl)c2)cc1 [Compound 2033] — 37-fold lower, 15 nM
- Cn1cc(NC(=O)COc2ccc(NC(=O)CSc3nnnn3-c3ccc(C(C)(C)C)cc3Cl)c(Cl)c2)cc1C(=O)O [Compound 5029] — 16-fold lower, 34 nM
- CC(C)(C)c1ccc(-n2nnnc2SCC(=O)Nc2ccc(S(=O)(=O)NCC(=O)O)cc2Cl)c(Cl)c1 [Compound 3032] — 5.7-fold lower, 97.5 nM
- Cc1ccc(-n2nnnc2SCC(=O)Nc2ccc(-c3csc(N)n3)cc2Cl)c(Cl)c1 [Compound 3015] — 3-fold lower, 185 nM
- CC(C)(C)c1ccc(-n2nnnc2SCC(=O)Nc2ccc(-c3ccc(OCCN4CCOCC4)cc3)cc2Cl)c(Cl)c1 [Compound 2022] — 13-fold lower, 42 nM
- CC(C)(C)c1ccc(-n2nnnc2SCC(=O)Nc2ccc(S(=O)(=O)NCc3ccccc3)cc2Cl)c(Cl)c1 [Compound 3028] — within 1.5-fold, 440 nM
- Cc1ccc(-c2cn[nH]c2OCC(=O)Nc2ccc(-c3ccc(CC(=O)O)cc3)cc2Cl)c(Cl)c1 [Compound 1010] — 3.6-fold lower, 156 nM
- Cc1ccc(-n2nnnc2SCC(=O)Nc2ccc(-c3c[nH]cn3)cc2Cl)c(Cl)c1 [Compound 3018] — 2.1-fold lower, 269 nM
